Source: patent US10821093B2, “Antibacterial microelement chelates and the use thereof in animal feeds” (priority 2012, dated 2020)

How the values were obtained:
[1] = test system: Escherichia coli; experiment: MIC, liquid culture dilution (single chelates and cross-dilution combinations); type: cell-based
[2] = test system: Salmonella enterica; experiment: as above; type: cell-based, Salmonella enterica subp. Enterica serovar enteritidis
[3] = test system: Clostridium perfringens; type: cell-based
[4] = test system: Staphylococcus aureus; experiment: MIC, liquid culture dilution; type: cell-based
[5] = test system: Streptococcus agalactiae; experiment: MIC, liquid culture dilution; type: cell-based
[6] = test system: Brachyspira hyodysenteriae; experiment: MIC (single chelates and combinations)

## O=C([O-])c1ccccc1.O=C([O-])c1ccccc1.[Zn+2] [Zn bis-benzoate]
[1]
  Minimal inhibitory concentration (MIC): >4000 ppm
[2]
  Minimal inhibitory concentration (MIC): >4000 ppm
[3]
  Minimal inhibitory concentration (MIC): >4000 ppm

## Zn diammine aspartate
[1]
  Minimal inhibitory concentration (MIC): 92 ppm
[2]
  Minimal inhibitory concentration (MIC): 184 ppm

## Zn(H2O) bis-aspartate
[1]
  Minimal inhibitory concentration (MIC): 103 ppm

## CCCCC(=O)[O-].CCCCC(=O)[O-].O.[Zn+2] [Zn(H2O) bis-valerianate]
[1]
  Minimal inhibitory concentration (MIC): 120 ppm
[2]
  Minimal inhibitory concentration (MIC): 120 ppm

## N.N.NC(CCC(=O)O)C(=O)[O-].NC(CCC(=O)O)C(=O)[O-].[Cu+2] (centres unmarked) [Cu diammine bis-glutamate]
[4]
  Minimal inhibitory concentration (MIC): 387 ppm
[5]
  Minimal inhibitory concentration (MIC): 24 ppm
[3]
  Minimal inhibitory concentration (MIC): 97 ppm

## Cu diammine asparaginate
[1]
  Minimal inhibitory concentration (MIC): 620 ppm
[2]
  Minimal inhibitory concentration (MIC): 620 ppm
[4]
  Minimal inhibitory concentration (MIC): 620 ppm
[5]
  Minimal inhibitory concentration (MIC): 20 ppm
[3]
  Minimal inhibitory concentration (MIC): 38 ppm

## Zn (H2O)2-ethylenediamine tetraacetic acid
[3]
  Minimal inhibitory concentration (MIC): 400 ppm
[6]
  Minimal inhibitory concentration (MIC): 320 ppm

## NC(=O)CC(N)C(=O)[O][Cu]([NH3+])([NH3+])[O]C(=O)C(N)CC(N)=O (centres unmarked) [Cu diammine bis-asparaginate]
[1]
  Minimal inhibitory concentration (MIC): 1025 ppm
[2]
  Minimal inhibitory concentration (MIC): 2050 ppm
[4]
  Minimal inhibitory concentration (MIC): 1025 ppm
[5]
  Minimal inhibitory concentration (MIC): 16 ppm
[3]
  Minimal inhibitory concentration (MIC): 32 ppm

## Zn diammine glutamate
[1]
  Minimal inhibitory concentration (MIC): 167 ppm
[4]
  Minimal inhibitory concentration (MIC): 61 ppm
[5]
  Minimal inhibitory concentration (MIC): 15 ppm
[3]
  Minimal inhibitory concentration (MIC): 245 ppm

## [NH2][Zn]1([NH2])[O]C(=O)CN(CC(=O)O)CCN(CC(=O)O)CC(=O)[O]1 [Zn diamino ethylenediamine tetraacetic acid]
[3]
  Minimal inhibitory concentration (MIC): 100 ppm
[6]
  Minimal inhibitory concentration (MIC): >4000 ppm

## Zn triammine tri-glutamate
[4]
  Minimal inhibitory concentration (MIC): 58 ppm
[5]
  Minimal inhibitory concentration (MIC): 15 ppm
[3]
  Minimal inhibitory concentration (MIC): 469 ppm

## N.N.NC(CCC(=O)O)C(=O)[O-].NC(CCC(=O)O)C(=O)[O-].[Zn+2] (centres unmarked) [Zn diammine bis-glutamate]
[4]
  Minimal inhibitory concentration (MIC): 42 ppm
[5]
  Minimal inhibitory concentration (MIC): 21 ppm
[3]
  Minimal inhibitory concentration (MIC): 334 ppm

## Zn(H2O) bis-glutamate
[4]
  Minimal inhibitory concentration (MIC): 21 ppm
[5]
  Minimal inhibitory concentration (MIC): 10 ppm
[3]
  Minimal inhibitory concentration (MIC): 331 ppm

## Cu nitrolo triacetic acid
[3]
  Minimal inhibitory concentration (MIC): >4000 ppm
[6]
  Minimal inhibitory concentration (MIC): 450 ppm

## Cu diammine glutamate
[1]
  Minimal inhibitory concentration (MIC): 688 ppm
[5]
  Minimal inhibitory concentration (MIC): 11 ppm
[3]
  Minimal inhibitory concentration (MIC): 43 ppm

## NC(CCC(=O)[O-])C(=O)[O-].[Zn+2] (centres unmarked) [Zn mono-glutamate]
[1]
  Minimal inhibitory concentration (MIC): 70 ppm
[4]
  Minimal inhibitory concentration (MIC): 36 ppm
[5]
  Minimal inhibitory concentration (MIC): 18 ppm
[3]
  Minimal inhibitory concentration (MIC): 475 ppm

## NC(Cc1cnc[nH]1)C(=O)[O-].NC(Cc1cnc[nH]1)C(=O)[O-].[Zn+2] (centres unmarked) [Zn bis-histidinate]
[1]
  Minimal inhibitory concentration (MIC): >4000 ppm
[2]
  Minimal inhibitory concentration (MIC): >4000 ppm
[4]
  Minimal inhibitory concentration (MIC): >4000 ppm
[5]
  Minimal inhibitory concentration (MIC): 4 ppm
[3]
  Minimal inhibitory concentration (MIC): 650 ppm

## Zn diammine bis-histidinate
[1]
  Minimal inhibitory concentration (MIC): >4000 ppm
[2]
  Minimal inhibitory concentration (MIC): >4000 ppm
[4]
  Minimal inhibitory concentration (MIC): >4000 ppm
[5]
  Minimal inhibitory concentration (MIC): 12 ppm
[3]
  Minimal inhibitory concentration (MIC): 1950 ppm

## O=C([O-])CN(CC(=O)[O-])CC(=O)O.[Zn+2] [Zn nitrolotriacetate]
[1]
  Minimal inhibitory concentration (MIC): 40 ppm
[2]
  Minimal inhibitory concentration (MIC): 40 ppm

## Zn(H2O) tri-aspartate
[1]
  Minimal inhibitory concentration (MIC): 75 ppm
[2]
  Minimal inhibitory concentration (MIC): 70 ppm

## CCC(=O)[O-].CCC(=O)[O-].O.[Zn+2] [Zn(H2O) bis-propionate]
[1]
  Minimal inhibitory concentration (MIC): 160 ppm
[2]
  Minimal inhibitory concentration (MIC): 160 ppm

## Cu diammine tri-glutamate
[4]
  Minimal inhibitory concentration (MIC): 487 ppm
[5]
  Minimal inhibitory concentration (MIC): 8 ppm
[3]
  Minimal inhibitory concentration (MIC): 30 ppm

## Zn tri-asparaginate
[4]
  Minimal inhibitory concentration (MIC): 18 ppm
[5]
  Minimal inhibitory concentration (MIC): 19 ppm
[3]
  Minimal inhibitory concentration (MIC): 450 ppm

## Cu diammine tri-asparaginate
[1]
  Minimal inhibitory concentration (MIC): 1400 ppm
[2]
  Minimal inhibitory concentration (MIC): >4000 ppm
[4]
  Minimal inhibitory concentration (MIC): 1400 ppm
[5]
  Minimal inhibitory concentration (MIC): 43 ppm
[3]
  Minimal inhibitory concentration (MIC): 44 ppm

## Zn diammine tri-asparaginate
[4]
  Minimal inhibitory concentration (MIC): 114 ppm
[5]
  Minimal inhibitory concentration (MIC): 14 ppm
[3]
  Minimal inhibitory concentration (MIC): 456 ppm

## O=C(O)c1ccccc1[O-].O=C(O)c1ccccc1[O-].[Zn+2] [Zn bis-salycilate]
[1]
  Minimal inhibitory concentration (MIC): >4000 ppm
[2]
  Minimal inhibitory concentration (MIC): >4000 ppm
[3]
  Minimal inhibitory concentration (MIC): >4000 ppm

## N[C@@H](CC(=O)[O-])C(=O)[O-].[Zn+2] [Zn mono-aspartate]
[1]
  Minimal inhibitory concentration (MIC): 74 ppm
[2]
  Minimal inhibitory concentration (MIC): 74 ppm

## Zn diammine tri-aspartate
[1]
  Minimal inhibitory concentration (MIC): 114 ppm
[2]
  Minimal inhibitory concentration (MIC): 228 ppm

## CCCC(=O)[O-].CCCC(=O)[O-].O.[Zn+2] [Zn(H2O) bis-butyrate]
[1]
  Minimal inhibitory concentration (MIC): 110 ppm
[2]
  Minimal inhibitory concentration (MIC): 110 ppm

## Zn diammine asparaginate
[4]
  Minimal inhibitory concentration (MIC): 46 ppm
[5]
  Minimal inhibitory concentration (MIC): 23 ppm
[3]
  Minimal inhibitory concentration (MIC): 369 ppm

## Zn diammine bis-asparaginate
[4]
  Minimal inhibitory concentration (MIC): 62 ppm
[5]
  Minimal inhibitory concentration (MIC): 15 ppm
[3]
  Minimal inhibitory concentration (MIC): 494 ppm

## N.N.NC(CC(=O)O)C(=O)[O-].NC(CC(=O)O)C(=O)[O-].[Zn+2] (centres unmarked) [Zn diammine bis-aspartate]
[1]
  Minimal inhibitory concentration (MIC): 123 ppm
[2]
  Minimal inhibitory concentration (MIC): 247 ppm

## NC(=O)C[C@H](N)C(=O)[O-].NC(=O)C[C@H](N)C(=O)[O-].[Zn+2] [Zn bis-asparaginate]
[4]
  Minimal inhibitory concentration (MIC): 26 ppm
[5]
  Minimal inhibitory concentration (MIC): 51 ppm
[3]
  Minimal inhibitory concentration (MIC): 412 ppm

## Zn(NH4)4(glycine)2 [Zn tetraammine bis-glycinate]
[1]
  Minimal inhibitory concentration (MIC): 140 ppm
[2]
  Minimal inhibitory concentration (MIC): 140 ppm

## Zn diammine citrate
[1]
  Minimal inhibitory concentration (MIC): 48 ppm
[2]
  Minimal inhibitory concentration (MIC): 98 ppm
[4]
  Minimal inhibitory concentration (MIC): 49 ppm
[5]
  Minimal inhibitory concentration (MIC): 49 ppm

## Zn asparaginate
[4]
  Minimal inhibitory concentration (MIC): 18 ppm
[5]
  Minimal inhibitory concentration (MIC): 37 ppm
[3]
  Minimal inhibitory concentration (MIC): 297 ppm

## Zn(H2O) tri-glutamate
[1]
  Minimal inhibitory concentration (MIC): 70 ppm
[4]
  Minimal inhibitory concentration (MIC): 35 ppm
[5]
  Minimal inhibitory concentration (MIC): 17 ppm
[3]
  Minimal inhibitory concentration (MIC): 281 ppm
